The text below walks through data of publication PMC9728921, “Characterization of a KDM5 small molecule inhibitor with antiviral activity against hepatitis B virus” (PLOS ONE, 2022).

Data set [1] is described as follows: Tolerability in rats. It counts as in vivo. The following applies: GS-5801 doses tested (0.3-30 mg/kg p.o. once daily for five days).
Experimental: Animals were sacrificed 24 hours post final dose and approximately 100 mg of liver (left lateral lobe), lung, and kidney tissue was collected. Additionally, one mL of venous blood for PBMC isolation was collected into K2EDTA vacutainer tubes (Thermo Fisher; BD367835). […] Diluted whole blood was layered onto an equal volume of HISTOPAQUE-1077 (Sigma; 10771) gradient medium and centrifuged at 400 x g for 30 minutes with the centrifuge brake switch off. PBMCs were collected at the plasma-HISTOPAQUE-1077 interface and washed three times with DPBS by centrifugation at 500 x g for 10 minutes. Tissue samples and PBMCs were snap frozen using liquid nitrogen and stored at -80°C for subsequent H3K4me3:H3 analysis by ELISA.
The target in data set [2] is T1, G9a (Homo sapiens, UniProt Q96KQ7).
T1 construct: 786-1210; purchased RBC (read as Reaction Biology Corporation, named)
T1 sequence (Q96KQ7 786-1210): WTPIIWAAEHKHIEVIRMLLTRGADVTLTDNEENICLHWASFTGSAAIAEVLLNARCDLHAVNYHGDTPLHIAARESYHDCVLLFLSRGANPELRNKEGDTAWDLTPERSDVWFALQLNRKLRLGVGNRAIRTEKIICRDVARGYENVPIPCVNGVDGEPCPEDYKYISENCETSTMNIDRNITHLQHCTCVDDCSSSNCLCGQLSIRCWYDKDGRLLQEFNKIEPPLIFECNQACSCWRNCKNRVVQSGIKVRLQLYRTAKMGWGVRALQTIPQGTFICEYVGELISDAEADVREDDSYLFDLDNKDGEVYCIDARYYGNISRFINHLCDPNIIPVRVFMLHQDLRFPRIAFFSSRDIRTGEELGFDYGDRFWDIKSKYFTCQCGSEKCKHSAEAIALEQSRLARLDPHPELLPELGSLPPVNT
The experiment in a line: Histone methyltransferase enzymatic assay, G9a. The format is biochemical. The following applies: enzyme conc. 100 nM. Here is the method: Histone methyltransferase assays were performed in 96-well half-area optiplates (PerkinElmer) at room temperature. All concentrations are final unless noted otherwise. Compounds were serially diluted in DMSO and the final DMSO concentration was 1%. A 24 μL reaction mixture contained compound, enzyme, 200 nM of nucleosome or histone substrate, 400 nM ^3H-SAM (83.1 Ci/mmol), 50 mM Tris-HCl (pH 8.0), 50 mM NaCl, 5 mM MgCl2, 1 mM DTT, and 0.01% Tween-20. The plate was sealed, mixed on a Titramax plate shaker at 1200 rpm for 30 sec, and incubated at room temperature for 60 min. The reaction was quenched by addition of 24 μL mixture containing 5 mg/mL PVT-PEI beads and 300 μM unlabeled SAM in water. The plate was sealed, mixed as previously noted, incubated overnight, and read on a TopCount plate reader (PerkinElmer).
(§1) Data was analyzed using GraphPad Prism 6.0 (La Jolla, CA). […] IC50 values were calculated as an average of at least two independent experiments.

The target of data set [3] is T2, KDM2B (Homo sapiens, UniProt Q8NHM5).
T2 sequence (Q8NHM5 1-1336): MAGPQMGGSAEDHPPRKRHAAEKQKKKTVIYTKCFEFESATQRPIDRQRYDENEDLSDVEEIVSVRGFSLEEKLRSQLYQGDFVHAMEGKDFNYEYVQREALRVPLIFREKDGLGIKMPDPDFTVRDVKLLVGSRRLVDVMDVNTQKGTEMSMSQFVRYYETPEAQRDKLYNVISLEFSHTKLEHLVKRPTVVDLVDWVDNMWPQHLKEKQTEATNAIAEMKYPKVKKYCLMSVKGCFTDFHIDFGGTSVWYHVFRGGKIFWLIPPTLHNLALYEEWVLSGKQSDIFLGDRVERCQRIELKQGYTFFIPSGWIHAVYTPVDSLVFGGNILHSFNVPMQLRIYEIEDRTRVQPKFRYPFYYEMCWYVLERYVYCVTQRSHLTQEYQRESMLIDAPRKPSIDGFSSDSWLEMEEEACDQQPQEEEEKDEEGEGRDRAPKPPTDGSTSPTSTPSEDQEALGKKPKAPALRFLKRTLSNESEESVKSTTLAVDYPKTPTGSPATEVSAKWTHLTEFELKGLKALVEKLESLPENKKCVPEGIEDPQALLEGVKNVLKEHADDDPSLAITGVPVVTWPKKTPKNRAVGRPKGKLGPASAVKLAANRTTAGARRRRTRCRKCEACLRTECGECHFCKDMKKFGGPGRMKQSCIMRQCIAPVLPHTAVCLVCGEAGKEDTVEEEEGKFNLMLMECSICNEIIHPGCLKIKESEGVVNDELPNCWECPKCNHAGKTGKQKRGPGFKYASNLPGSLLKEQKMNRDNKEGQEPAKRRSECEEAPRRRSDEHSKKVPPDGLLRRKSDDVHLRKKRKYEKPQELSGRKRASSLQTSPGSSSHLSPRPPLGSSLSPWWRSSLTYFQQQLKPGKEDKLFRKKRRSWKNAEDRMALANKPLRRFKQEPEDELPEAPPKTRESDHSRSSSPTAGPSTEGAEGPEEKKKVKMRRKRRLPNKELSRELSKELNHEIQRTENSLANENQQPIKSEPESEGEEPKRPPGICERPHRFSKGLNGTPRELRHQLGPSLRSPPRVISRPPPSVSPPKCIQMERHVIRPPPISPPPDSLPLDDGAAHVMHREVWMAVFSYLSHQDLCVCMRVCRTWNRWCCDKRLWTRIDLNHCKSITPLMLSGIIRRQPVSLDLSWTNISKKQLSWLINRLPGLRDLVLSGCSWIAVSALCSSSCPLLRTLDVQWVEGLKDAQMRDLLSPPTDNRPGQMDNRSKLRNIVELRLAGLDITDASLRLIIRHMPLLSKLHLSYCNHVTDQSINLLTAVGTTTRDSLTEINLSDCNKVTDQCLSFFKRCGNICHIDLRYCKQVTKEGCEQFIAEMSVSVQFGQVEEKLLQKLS
The data set can be described thus: KDM2B enzymatic assay (AlphaLISA). The format is biochemical. The method, then:
The following assay protocol was used for all histone demethylases tested except KDM1A, KDM5A, B, and D, which are described below. Compounds were serially diluted into a 384-well Alpha plate as a DMSO solution and mixed with 5 μL reaction buffer (buffer A) containing 50 mM HEPES (pH 7.0), 0.1% BSA, and 0.003% Tween-20. The enzyme of interest was pre-incubated with 15 μM of Fe^2+ for 10 min (except 30 min for KDM2B) in reaction buffer A. 5 μL of the enzyme mixture was added to each of the compound-containing wells and incubated for 10 min. The reaction was started by addition of a 5 μL mixture containing 300 nM peptide substrate, 75 μM L-ascorbic acid, and 30 μM α-ketoglutarate in buffer A. This final 15 μL of reaction mixture was incubated for 20 min for KDM5B and 1 hour for the other KDM enzymes. The reaction was quenched with 10 μL of diluted AlphaLISA Acceptor beads (1:400) in Epigenetics Buffer and incubated for 60 min. The Donor beads were diluted 1:400 into Epigenetics Buffer in the dark and 10 μL of this was added to each well and incubated for another 60 min in the dark. The assay plates were read on an Enspire plate reader (PerkinElmer) using a standard AlphaLISA program.
as §1

The term IC50 denotes the concentration needed to halve the response being measured. Lower therefore signals greater potency in that assay.

As for `CCOC(=O)c1ccnc(CNCC(=O)N(CC)CCN(C)C)c1` [GS-5801], the adverse effects entry in data set [1] was “no adverse effects were observed”.

Consider `CCN(CCN(C)C)C(=O)CNCc1cc(C(=O)O)ccn1` [GS-080], for which the 50% inhibitory concentration (IC50) in data set [2] was greater than 100000 nM; in data set [3] (enzyme concentration 2 nM), 620 nM. Moreover, in data set [3] (IC50 of KDM2B over KDM5A), the “Fold Selectivity Compared to KDM5A” value is reported as > 1,720 fold.
